Experimental data: US7166744B2, “Retinoid derivatives and methods for producing said compounds and anti-cancer pharmaceutical composition comprising said compounds” (Chebigen Co., Ltd., priority 2001, dated 2007)
Entries after “also recorded” stand apart in the source; their conditions may differ.

Tests used:
Assay type in all cases: cell-based
various cancer cells = assay: MTT proliferation assay, summary over various cancer cells; conditions: Table 2
Experimental: The effects of test compounds on proliferation of various cancer cells was examined by 3-(4,5-dimethylthiazol-2-yl)-2,5-diphenyltetrazolium bromide (MTT, Sigma) assay in a dose dependent manner. In the MTT assay, colon, liver, cervix, ovary, and breast cancer cell lines were treated with test compounds at various concentrations. Living cancer cells reduce MTT to dark blue MTT formazan that would be measured by absorbance.
Colon cancer cells, HCT116, DLD-1 and HT29, cervix cancer cells, HeLa and CaSki, ovary cancer cells, SKOV-3, 2774 and OVCAR-3, liver cancer cells, SK-Hep-1, PLCPRF5 and HepG2, and breast cancer cells, ZR75-1 and MDA-MB 231 were seeded at an initial density of 3000 cells per well in 96-well plates. After attachment of cells to the walls of the wells, the medium containing fresh retinoid was treated with various concentrations (0.5 μM, 1 μM, 2.5 μM, 5 μM, 10 μM) for 48 hours. 50 μl of MTT solution (2 mg/ml in PBS) was added to cell culture media. The reaction micture was incubated at 37° C. in a 5% CO2 atmosphere for 4 hours. The supernatant was removed and 150 μl of DMSO was added. The optical density was measured spectrophotometrically at 550 nm. […] For other retinoid derivatives according to the present invention, absorbances were measured by this procedure and IC50 values, concentrations required for 50% growth inhibition, were determined.

cancer cells [1] = assay: FACS analysis of DNA content; conditions: 10 μM, 96 hours
Description: In order to quantitatively determine the levels of apoptosis, the cells treated with the same conditions as above were subjected to FACS analysis to measure DNA contents (FIG. 11).

RARs and RXRs = assay: CAT reporter assay, summary for RARs and RXRs (Experimental Example 9); conditions: 1 μM
Description: In order to confirm the effect of KCBG60 according to the present invention on retinoid receptor activity, cells were cotransfected with expression vectors of receptor subfamilies and reporter genes. As the reporter gene, chloramphenicol acetyltransferase (CAT) with a transcription control site reactive to respective receptors was used.
In the transcriptional activity for RXR type receptors, similar results were obtained.

[2] = test system: HCT116 colon cancer cells; assay: Optical microscopy of treated cells, HCT116; conditions: HCT116, 5 μM, 48 hours, compared to HPR
Experimental: (§1) Both colon cancer HCT116 cells and breast cancer MCF-7 cells were treated with 5 μM of the retinoid derivatives KCBG10 and KCBG41 for 48 hours, and photographed by optical microscope (×200). As a control compound, HPR was used at the same concentration. In FIG. 2, the control represents non-treated cells.

[3] = test system: RAR subfamilies (RARα, RARβ, RARγ); assay: CAT ELISA reporter assay of retinoid receptors (Experimental Example 4)
Experimental: As the reporter gene, chloramphenicol acetyltransferase (CAT) gene was used. […] The colon cancer cells were plated at 10^6 in 6-well. At next day, the mixture of DNA (2 μg) and SuperFect reagent was added to the cells. After overnight transfection, the media were exchanged with fresh media containing retinoid at various concentrations for 24 hours and washed with cold 1×PBS. The cells were collected, suspended in 100 μl of 0.25M Tris-HCl (pH 7.6) and lysed by 3 freezing-thawing cycles. After centrifugation (12,000×g, 10 min, 4° C.), 100 μl of the supernatant was recovered. 10 μl of the recovered supernatant was tested for activity of β-galactosidase according to standard prosedures (Sambrook et al., 1989) and 50 μl of the recovered supernatant were tested for activity of the reporter by the CAT ELISA (Boeringer Mannheim, Germany) method. The obtained data for activity of the reporter was normalized with respect to β-gal activity for comparison.

[4] = test system: PARP (poly(ADP-ribose)polymerase) and CPP32 (caspase-3) cleavage in HCT 116 cells; assay: Western blotting of PARP and CPP32 cleavage; conditions: 5 μM
Experimental: FIG. 6 is the cleavage results of PARP and CPP-32, by a Western blotting analysis, derived from colon cancer cells HCT 116 to which the respective retinoid derivatives were treated.
By DAPI (4,6-diamidino-2-phenylindole) staining assay for staining DNA in cellular nucleus, nuclear condensation and fragmentation, characteristic features of apoptosis, were observed. […] In FIG. 4, the control represents non-treated cells. The sub-G1 DNA contents of colon cancer HTC116 cells and breast cancer MCF-7 cells were measured by FACS (Fluorescence-Activated Cell Sorter) assay to quantify the apoptosis (FIG. 5). Finally, in order to further characterize the apoptosis observed in retinoid derivative-treated cells, the cleavage of apoptosis-related proteins, including PARP (poly(ADP-ribose)polymerase) and CPP32 (caspase-3) by Western blotting. […] PARP cleavage occurred in a time-dependent manner, in parallel with the induction of apoptosis (FIG. 6B). C in FIG. 6 represents the result of Western blotting of non-treated cells.

[5] = test system: MCF-7 breast cancer cells; assay: Optical microscopy of treated cells, MCF-7; conditions: MCF-7, 5 μM, 48 hours, compared to HPR
Experimental: as §1

MMP-3 mRNA expression = assay: RT-PCR of MMP-3 mRNA in HCT116; conditions: HCT116, 1 μM, 36 hours
Experimental: Previously, it was shown that the synthetic retinoid derivatives inhibit the transcriptional activity of AP-1. Also, it is well known that MMP (matrix metalloproteinase), a main target gene of AP-1 is involved in metastasis of cancer cells. Therefore, the inhibitive effects of the retinoid derivatives on metastasis of cancer was examined by RT-PCR analysis. Colon cancer HCT116 cells were treated with 1 μM retinoid for 36 hours. RNA was isolated from the cells and mRNA expression levels of MMP-1, -2 and -3 were analyzed by RT-PCR. […] As the control, GAPDH was used and it was confirmed that its expression was not affected by retinoid. Meanwhile, the expression level of MMP-3 was affected weakly by KCBG40, intermediately by KCBG41 but strongly by KCBG10 (FIG. 9).

cancer cells [6] = assay: Acridine orange / ethidium bromide double staining; conditions: 10 μM, 96 hours
Description: Therefore, the anti-proliferation effect of KCBG60 is due to the induction of apoptosis.

Compound | relative rate of dead cells having a DNA content of 2N or less (cancer cells [1]) | number of viable cancer cells (microscopy) [2] | cleavage of PARP and CPP32 (Western blotting) [4] | number of viable cancer cells (microscopy) [5] | effect on MMP-3 mRNA expression level (MMP-3 mRNA expression) | acridine orange / ethidium bromide staining colour of cells (cancer cells [6]) | also measured
CC1=C(/C=C/C(C)=C/C=C/C(C)=C/C(=O)O)C(C)(C)CCC1 [ATRA, All-trans-retinoic acid, reference compound] |  |  |  |  |  |  | anti-cancer activity in cells other than HepG (various cancer cells): very a low anti-cancer activity
CC1=C(/C=C/C(C)=C/C=C/C(C)=C/C(=O)Nc2ccc(O)cc2)C(C)(C)CCC1 [HPR, (2E,4E,6E,8E)-[3,7-dimethyl-9-(2,6,6-trimethylcyclohex-1-enyl)-nona-2,4,6,8-tetraenoylamino]-4-hydroxyphenylamide] | much higher rates than other groups |  |  |  |  |  | activity relative to ATRA for all 3 RARs (RARs and RXRs): about 50%
CCCC(=O)Oc1cc(O)ccc1NC(=O)/C=C(C)/C=C/C=C(C)/C=C/C1=C(C)CCCC1(C)C [KCBG10, 2.2-[(2E,4E,6E,8E)-3,7-Dimethyl-9-(2,6,6-trimethylcyclohex-1-enyl)-nona-2,4,6,8-tetraenoylamino]-5-hydroxyphenylbutanoate] |  | significant reductions in the number of viable cancer cells | induced the cleavage of the proteins | significant reductions in the number of viable cancer cells; also recorded: kills MCF-7 cells much more than other derivatives | strongly |  | retinoid receptor activity (CAT reporter) ([3]; concentration dependence): did not have activity at a low concentration but showed an increase of activity as the concentration increased
CCCC(=O)Nc1cc(NC(=O)/C=C(C)/C=C/C=C(C)/C=C/C2=C(C)CCCC2(C)C)ccc1O [KCBG41, (2E,4E,6E,8E)-[3,7-dimethyl-9-(2,6,6-trimethylcyclohex-1-enyl)-nona-2,4,6,8-tetraenoylamino]-(3-butyrylamino-4-hydroxy)phenylamide] |  | significant reductions in the number of viable cancer cells; also recorded: more effective on HCT116 than other derivatives | induced the cleavage of the proteins | significant reductions in the number of viable cancer cells | intermediately |  | retinoid receptor activity relative to ATRA and HPR ([3]; three RAR subfamilies, as the concentration increased): about 50%
CCCC(=O)Oc1ccc(NC(=O)/C=C(C)/C=C/C=C(C)/C=C/C2=C(C)CCCC2(C)C)cc1 [KCBG60] | much higher rates than other groups |  |  |  |  | cells were stained with orange color | activity for RARs and RXRs (RARs and RXRs): activity as low as the control and phenyl butylate-treated group; also recorded: almost no activity for RARs and RXRs
phenyl butylate |  |  |  |  |  | cells remained normal green color | 
